Results reported in patent publication US6413775B1, “Polyamine analog-activated SSAT gene therapy” (Health Research, Inc., priority 1999, dated 2002).
Where two headings read alike, the source gives them in different places.

Columns and labels:
[1] = system: Polyamine pools in H-10 cells; experiment: Polyamine pools by HPLC in H-10 cells ±Dox treated with DENSPM; type: cell-based, human; settings: for Polyamine Pools: AcSpd / Polyamine Pools: AcSpm / Polyamine Pools: Put / Polyamine Pools: Spd / Polyamine Pools: Spm: 48 h
Description: (§1) A MCF-7 breast carcinoma cell line stably transfected with a tetracycline-off transfection system was purchased from Clontech Laboratories Inc. (Palo Alto, Calif.). The cells were cultured in Dulbecco's Modified Eagle's Medium (DMEM; Life Technologies, Gaithersburg, Md.), supplemented with 2 mM glutamine, 10% fetal bovine serum, penicillin at 100 U/ml, streptomycin at 100 U/ml and the antibiotic G418 (Life Technologies) at 100 μg/ml at 37° C. in the presence of 5% CO2.Cells were harvested by trypsinization and counted electronically (Coulter Model ZM, Coulter Electronics, Hialeah, Fla.). During treatment with polyamines or analogs, 1 mM aminoguanidine was routinely included in the media to prevent enzymatic oxidation to toxic products.
(§2) Total RNA was extracted with guanidine isothiocyanate and purified by the commonly used cesium chloride gradient centrifugation. Human SSAT cDNA probe (Xiao et al, 1991, supra) was used in Northern blot analyses. ODC and SSAT enzyme activities were assayed as reported earlier (Kramer et al., 1995, J. Biol. Chem. 270, 2124-2132.31). Polyamines, their acetylated derivatives and the polyamine analog DENSPM were measured by high performance liquid chromatography as previously described in detail by Kramer et al. (Kramer et al., 1993, supra), which method is incorporated herein by reference.
(§3) In this table are presented the effects of conditional overexpression on DENSPM induced SSAT mRNA and activity and on polyamine pool depletion. When exposed to 10 μM DENSPM for 24 h, MRNA levels increased by 4-fold in induced cells and remained at ^˜20-fold in uninduced cells. Presumably, some rate-limiting step prevented DENSPM from increasing MRNA beyond the already high levels in these cells.

[2] = system: spermidine-spermine N^1-acetyltransferase (SSAT); experiment: SSAT enzyme activity in clone H-10 cells ±Dox treated with DENSPM; type: cell-based, human; settings: for increase in SSAT activity: 10 μM DENSPM; for DENSPM-induced SSAT activity: cells transfected with human SSAT cDNA; for SSAT Activity / SSAT Effects: Activity (fold): 48 h; for SSAT Activity: relative to closed untreated = 1; for SSAT Effects: Activity (fold): DENSPM 10 μM
Description: as §1, §2
(§4) To enhance the growth inhibitory effects of DENSPM, and to more definitively examine the relationship between SSAT overexpression and cell growth, a cell line was developed in which SSAT expression is conditionally regulated by doxycycline (DOX) an analog of tetracycline which penetrates cells more effectively. MCF-7 cells containing the pTet-Off plasmid were transfected with the PTRE/expression plasmids described above using the Lipofectin method (Notarangelo et al., 1997, Focus, 19, 58-59, incorporated herein by reference). To facilitate clone selection, cells were co-transfected with a pTK-Hyg vector (Clontech Laboratories, Inc.). Transfected clones resistant to […] hygromycin were selected and tested for SSAT enzyme activity and/or mRNA in the presence or absence of 200 ng/ml Dox [+Dox and −Dox, respectively (Clontech Laboratories, Inc)]. In the presence of Dox, SSAT transcription is closed; in the absence of Dox, SSAT transcription is open. […] Clones, which expressed the lowest basal levels of SSAT activity or mRNA in +Dox and the greatest induced level of SSAT activity or mRNA −Dox, were selected for further study. Clones were maintained continuously under +Dox conditions until experiments were initiated.
as §3

[3] = system: spermidine-spermine N^1-acetyltransferase (SSAT); settings: in many tumor cells; cited from earlier work
[4] = system: MCF-7/hSc clone H-10 cells; experiment: Growth inhibition and dose-response of clone H-10 cells (MCF-7/hSc) ±Dox by DENSPM; type: cell-based, human; settings: for growth inhibition: by 48 h; for Growth Effects: Onset of cytotoxicity: DENSPM 10 μM
Description: as §1
(§5) Relative growth inhibition by DENSPM. The relative antiproliferative effect exerted by DENSPM in H-10 and M-3 cells grown ±Dox was studied over an extended (8 d) time period. As shown in the FIG. 9, H-10-Dox cells were strikingly more sensitive to the antiproliferative action of the DENSPM than +Dox cells. Less than 15% growth inhibition was achieved by 48 h in +Dox H-10 cells compared to >80% in −Dox cells (FIG. 9). […] As a generality, DENSPM-mediated growth inhibition tended to be more cytotoxic during SSAT induction as indicated by the rapid loss in cell number (FIG. 9).
The increased sensitivity of SSAT induced H-10 cells to DENSPM was quantitated by dose-response analysis. Cells were grown for 48 h ±Dox and then exposed to increasing concentrations of DENSPM for 48 h (FIG. 10). In the IC50 comparisons, −Dox cells were about approximately 100-fold more sensitive to DENSPM than +Dox cells (i.e. comparing IC50 values of 0.2 and 20 μM, respectively).

[5] = system: MCF-7/mSg clone M-3 cells; experiment: Growth inhibition of clone M-3 cells (MCF-7/mSg) ±Dox by DENSPM; type: cell-based, human
Description: as §1, §5

[6] = system: SSAT mRNA; experiment: Northern blot analysis of SSAT mRNA in clone H-10 cells ±Dox treated with DENSPM; type: cell-based, human; settings: for SSAT mRNA / SSAT Effects: mRNA (fold): 48 h; for SSAT mRNA: relative to closed untreated = 1; for SSAT Effects: mRNA (fold): DENSPM 10 μM
Description: as §1, §2, §4, §3

[7] = system: ornithine decarboxylase (ODC); experiment: ODC enzyme activity in H-10 cells treated with DENSPM; type: cell-based, human; settings: both +Dox and -Dox cells, irrespective of SSAT induction
Description: as §1
Total RNA was extracted with guanidine isothiocyanate and purified by the commonly used cesium chloride gradient centrifugation. Human SSAT cDNA probe (Xiao et al, 1991, supra) was used in Northern blot analyses. ODC and SSAT enzyme activities were assayed as reported earlier (Kramer et al., 1995, J. Biol. Chem. 270, 2124-2132.31). Polyamines, their acetylated derivatives and the polyamine analog DENSPM were measured by high performance liquid chromatography as previously described in detail by Kramer et al. (Kramer et al., 1993, supra), which method is incorporated herein by reference. […]

CCNCCCNCCCNCCCNCC [DENSPM, N^1, N^11diethylnorspermine]
Polyamine Pools: AcSpd ([1]; Closed (+Dox) +DENSPM): 20 pmol/10^6 cells | Polyamine Pools: AcSpm ([1]; Closed (+Dox) +DENSPM): 50 pmol/10^6 cells | Polyamine Pools: Put ([1]; Closed (+Dox) +DENSPM): 50 pmol/10^6 cells | Polyamine Pools: Spd ([1]; Closed (+Dox) +DENSPM): 110 pmol/10^6 cells | Polyamine Pools: Spm ([1]; Closed (+Dox) +DENSPM): 750 pmol/10^6 cells | Polyamine Pools: AcSpd ([1]; Open (-Dox) +DENSPM): <5 pmol/10^6 cells | Polyamine Pools: AcSpm ([1]; Open (-Dox) +DENSPM): 20 pmol/10^6 cells | Polyamine Pools: Put ([1]; Open (-Dox) +DENSPM): <5 pmol/10^6 cells | Polyamine Pools: Spd ([1]; Open (-Dox) +DENSPM): <5 pmol/10^6 cells | Polyamine Pools: Spm ([1]; Open (-Dox) +DENSPM): 65 pmol/10^6 cells | depletion of all three polyamines ([1]; by 48 h, both +Dox and -Dox cells): near total depletion | increase in SSAT activity ([2]; +Dox cells): > 80 fold | DENSPM-induced SSAT activity ([2]; +Dox conditions (closed)): ~90 fold | increase in SSAT activity ([2]; -Dox cells): > 1500 fold | DENSPM-induced SSAT activity ([2]; -Dox conditions (open)): 1700 fold | SSAT Activity ([2]; Closed (+Dox) +DENSPM): 89 X | SSAT Effects: Activity (fold) ([2]; Closed (Dox 200 ng/ml)): 89X fold | SSAT Activity ([2]; Open (-Dox) +DENSPM): 1,700 X | SSAT Effects: Activity (fold) ([2]; Open (no Dox)): 1700X fold | difference in SSAT activity with DENSPM treatment, open vs closed ([2]; from Table 3): about 20 fold | induction of SSAT activity [3]: exceed 1000 fold | growth inhibition ([4]; +Dox H-10 cells): Less than 15% | IC50 ([4]; +Dox H-10 cells, grown 48 h ±Dox, then DENSPM 48 h, read-out: IC50 of DENSPM (growth)): 20 µM | growth inhibition ([4]; -Dox H-10 cells): > 80% | IC50 ([4]; -Dox H-10 cells, grown 48 h ±Dox, then DENSPM 48 h, read-out: IC50 of DENSPM (growth)): 0.2 µM | IC50 ([4]; Closed (Dox 200 ng/ml), 48 h, read-out: Growth Effects: IC50 Dose): 200 µM | Growth Effects: Onset of cytotoxicity ([4]; Closed (Dox 200 ng/ml)): 4 days | Growth Effects: Onset of cytotoxicity ([4]; Open (no Dox)): immediate | growth inhibition ([5]; induced M-3 cells): 78% | growth inhibition ([5]; uninduced M-3 cells): 25% | SSAT mRNA levels increase ([6]; 10 μM DENSPM for 24 h, 'induced cells' as printed): 4 fold | SSAT mRNA levels ([6]; 10 μM DENSPM for 24 h, 'uninduced cells' as printed): ~20 fold | SSAT mRNA ([6]; Closed (+Dox) +DENSPM): 8 X | SSAT Effects: mRNA (fold) ([6]; Closed (Dox 200 ng/ml)): 8X fold | SSAT mRNA ([6]; Open (-Dox) +DENSPM): 20 X | SSAT Effects: mRNA (fold) ([6]; Open (no Dox)): 20X fold | effect on ODC activity [7]: suppressed ODC activity
